Assay results as given in patent US5208227A, “Method, compositions, and compounds for modulating brain excitability” (priority 1991, dated 1993).

How the values were obtained:
[1] = test system: strychnine-induced convulsions in mice; experiment: strychnine-induced convulsions; assay type: in vivo; conditions: Mus musculus, read-out: STR (strychnine) ED50
Procedure: (§1) Experiments were also performed to determine the physiological relevance of these interactions by measuring the ability of the compounds of and used in the invention to modulate TBPS-induced convulsions in Swiss-Webster mice. […] The time to onset of myoclonus (presence of forelimb clonic activity) induced by TBPS was determined by observing each mouse for a period of 45 minutes. Significant differences between the time to onset in control mice vs. steroid-treated mice were determined by Student's t-test. […] The number of animals with tonic and/or clonic convulsions was recorded. In the maximal electroshock test, 50 mA of current at 60 Hz was delivered through corneal electrodes for 200 msec. […] The ED50 (the dose at which the half-maximal effect occurs) dose was determined for each screen.

[2] = test system: (+)bicuculline-induced seizures in mice; experiment: animal or person; assay type: in vivo
Procedure: as §1

[3] = test system: metrazol-induced convulsions in mice; experiment: metrazol-induced convulsions; assay type: in vivo; conditions: Mus musculus, metrazol 85 mg/kg, 95% confidence limits, read-out: MTZ (metrazol) ED50
Procedure: as §1

mice [4] = experiment: rotorod test (sedative potential)
mice [5] = experiment: acute LD50; conditions: mice
acute LD50 = conditions: mouse, in vivo
[6] = test system: picrotoxin-induced convulsions in mice; experiment: picrotoxin-induced convulsions; assay type: in vivo; conditions: Mus musculus, read-out: PICRO (picrotoxin) ED50
Procedure: as §1

[7] = test system: GBR complex ([35S]TBPS site); experiment: dissociation kinetics of [35S]TBPS in cortical P2 homogenates; assay type: binding, rat; conditions: for effect on dissociation mechanism/kinetics of [35S]TBPS (in words): pentobarbital 30 micromolar, alphaxalone 300 nanomolar, 5-alpha-pregnan-3-alpha-hydroxy-20-one 20 nanomolar
Procedure: An assay was performed to determine the effect of pentobarbital on the dissociation kinetics of [^35 S]TBPS in rat cerebral cortical membranes. This assay was performed in accordance with the procedures outlined above. […] Dissociation of bound [^35 S]TBPS was initiated by 2 micromolar TBPS in all cases.

progesterone receptor = target: T1, progesterone receptor (Rattus norvegicus, UniProt Q63449); experiment: [3H]R5020 binding to the progesterone receptor in rat uterus; conditions: FIG. 5
T1 sequence (Q63449 1-923): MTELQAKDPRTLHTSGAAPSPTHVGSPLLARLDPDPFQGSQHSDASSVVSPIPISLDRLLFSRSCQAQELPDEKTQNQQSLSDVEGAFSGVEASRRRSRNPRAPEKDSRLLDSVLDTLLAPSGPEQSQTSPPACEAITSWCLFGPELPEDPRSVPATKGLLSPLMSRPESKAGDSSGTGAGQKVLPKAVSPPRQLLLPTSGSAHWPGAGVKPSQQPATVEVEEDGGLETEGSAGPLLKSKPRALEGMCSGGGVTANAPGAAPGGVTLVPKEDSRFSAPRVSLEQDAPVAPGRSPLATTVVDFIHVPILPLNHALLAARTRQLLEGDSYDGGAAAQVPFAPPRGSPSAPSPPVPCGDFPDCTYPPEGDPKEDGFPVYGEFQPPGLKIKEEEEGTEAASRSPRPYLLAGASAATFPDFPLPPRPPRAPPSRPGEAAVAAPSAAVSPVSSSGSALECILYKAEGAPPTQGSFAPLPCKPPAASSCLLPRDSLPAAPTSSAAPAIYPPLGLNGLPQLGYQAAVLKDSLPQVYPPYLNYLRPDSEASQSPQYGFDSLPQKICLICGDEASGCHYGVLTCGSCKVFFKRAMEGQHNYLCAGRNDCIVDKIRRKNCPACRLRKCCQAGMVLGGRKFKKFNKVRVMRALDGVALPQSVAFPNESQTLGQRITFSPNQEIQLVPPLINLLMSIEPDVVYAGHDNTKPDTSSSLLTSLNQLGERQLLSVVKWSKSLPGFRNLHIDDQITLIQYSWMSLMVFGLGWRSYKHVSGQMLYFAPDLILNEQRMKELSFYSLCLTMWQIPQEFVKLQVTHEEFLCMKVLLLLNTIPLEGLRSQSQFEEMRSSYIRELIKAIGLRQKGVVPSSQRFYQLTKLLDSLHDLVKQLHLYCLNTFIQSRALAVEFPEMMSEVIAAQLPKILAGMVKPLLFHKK
Excerpt: The data plotted in FIG. 5 were obtained by performing assays in accordance with the procedures outlined above to determine the effect of progesterone metabolites and the progestin R5020 on the binding of [^3 H]R5020 to the progesterone receptor in rat uterus. All points on the plot of FIG. 5 represent the mean of triplicate determinations. The following compounds are those listed in FIG. 5: 5-alpha-pregnan-3-alpha-ol-20-one (DHP), 5-alpha-pregnan-3-alpha,21-diol-20-one (Th-DOC), and 5-beta-pregnane-3-alpha,20 diol (5 BETA).

BZ receptor = experiment: modulation of [3H] flunitrazepam binding; set-up: species or system rat; conditions: pentobarbital 1.0 millimolar; 0.25 nM [3H]FLU; absence of GABA

## CC(=O)[C@H]1CC[C@H]2[C@@H]3CC[C@H]4C[C@H](O)CC[C@]4(C)[C@H]3CC[C@]12C [3α-hydroxy-5α-pregnan-20-one]
[1]
  ED50: > 300 mg/kg
[2]; Mus musculus, (+)bicuculline 2.7 mg/kg, 95% confidence limits, read-out: BIC (bicuculline) ED50
  ED50: 4.1 ± 1.7 mg/kg
[2]; compared with clinically useful anticonvulsants, Table 3
  anticonvulsant effectiveness (in words): highly effective with a profile similar to that of the benzodiazepine clonazepam
[3]
  ED50: 18.8 ± 1.1 mg/kg
Mice [4]; ED50 rotorod versus (+)bicuculline-induced seizures
  sedative liability at anticonvulsant doses: low
Mice [4]; mice, 10 minutes after injection, 6 rpm rod
  Rotorod (RR) ED50: 40-100
Mice [5]
  toxicity (in words): very low toxicity
Acute LD50
  LD50: > 500 mg/kg
[6]
  ED50: 31.7 ± 1.1 mg/kg
[7]; (**P < 0.01 vs control), alphaxalone 300 nM, 3a-OH-DHP 20 nM
  Total percentage of specific sites, rapidly dissociating (R): 35 ± 3 percentage
[7]; (*P < 0.05 vs control), alphaxalone 300 nM, 3a-OH-DHP 20 nM
  Total percentage of specific sites, slowly dissociating (S): 68 ± 3 percentage
[7]; [35S]TBPS dissociation, pentobarbital 30 nM [sic], alphaxalone 300 nM, 3a-OH-DHP 20 nM
  k-1, slowly dissociating component (S): 0.011 min⁻¹
[7]
  effect on dissociation mechanism/kinetics of [35S]TBPS (in words): absent
[7]; listed as 5-alpha-pregnan-3-alpha-ol-20-one
  effect on dissociation mechanism/kinetics of [35S]TBPS (in words): do not influence the dissociation kinetics
Progesterone receptor
  affinity for the progesterone receptor: lack of affinity
BZ receptor
  interaction with pentobarbital in enhancement of [3H] flunitrazepam binding: does not interact with pentobarbital
